What all share (type): functional
For assay [1], the system named is MCF7. The assay can be described thus: Average fold change in expression of CYP1B1 after treatment with compound of concentration 1 mM in human MCF-7 cells.
The test system of assay [2] is MCF7. The assay can be described thus: Average fold change in expression of CYP1B1 after treatment with compound of concentration 0.1 mM in human MCF-7 cells.
Assay [3] deals with MCF7. As to the kind of experiment: Average fold change in expression of CYP1A1 after treatment with compound of concentration 0.1 mM in human MCF-7 cells.
Assay [4] has as its system MCF7. As to the kind of experiment: Average fold change in expression of CYP1B1 after treatment with compound of concentration 0.01 mM in human MCF-7 cells.
Assay [5] deals with MCF7. As to the kind of experiment: Average fold change in expression of CYP1A1 after treatment with compound of concentration 0.01 mM in human MCF-7 cells.
In assay [6] the test system is MCF7. As to the kind of experiment: Average fold change in expression of CYP1A1 after treatment with compound of concentration 1 mM in human MCF-7 cells.
Assay [7] concerns MCF7. As to the kind of experiment: Average fold change in expression of CYP1A1 after co-treatment with compound of concentration 1 mM in human MCF-7 cells.
For assay [8], the system named is MCF7. The assay can be described thus: Average fold change in expression of CYP1B1 at 1 mM after co-treatment with compound and TSA in human MCF-7 cells.
In assay [9] the test system is MCF7. The assay can be described thus: Average fold change in expression of CYP1A1 at 1 mM after co-treatment with compound and TSA in human MCF-7 cells.
Assay [10] has as its system MCF7. As to the kind of experiment: Mean B[a]P DNA binding at 4 uM after co-treatment with compound and SAHA (2 uM) in human MCF-7 cells.
Assay [11] relates to MCF7. The assay can be described thus: Average fold change in expression of CYP1A1 at 1 mM after co-treatment with compound and SAHA in human MCF-7 cells.
The test system of assay [12] is MCF7. The assay can be described thus: Mean B[a]P DNA binding at 4 uM after co-treatment with compound and TSA (2 uM) in human MCF-7 cells.
For assay [13], the system named is MCF7. The assay can be described thus: Average fold change in expression of CYP1B1 after co-treatment with compound of concentration 1 mM in human MCF-7 cells.
The subject of assay [14] is MCF7. The assay can be described thus: Average fold change in expression of CYP1B1 at 1 mM after co-treatment with compound and SAHA in human MCF-7 cells.
For assay [15], the system named is MCF7. As to the kind of experiment: Mean B[a]P DNA binding at 4 uM in human MCF-7 cells.

For `O=C(CCCCCCC(=O)Nc1ccccc1C(=O)NO)Nc1ccccc1`, the Fold change is recorded as 1.58 in the assay on MCF7 [1]; 1.62 in the assay with MCF7 [2]; 2.86 in the assay with MCF7 [3]; 1.1 in the assay on MCF7 [4]; 0.77 in the assay on MCF7 [5]; 0.98 in the assay with MCF7 [6].
On to `c1ccc2c(c1)cc1ccc3cccc4ccc2c1c34` [BENZO[DEF]CHRYSENE], for which the Fold change in the assay on MCF7 [1] is 4.35; in the assay with MCF7 [2], 1.7; with MCF7 [7], 25.55; in the assay with MCF7 [3], 3.69; in the assay with MCF7 [4], 1.36; in the assay with MCF7 [8] it was 1.02. For the same molecule, the Fold change in the assay on MCF7 [9] turned out to be 8.77; in the assay with MCF7 [5] it was 1.85; in the assay on MCF7 [11] it was 22.92; in the assay on MCF7 [6], 25.24; with MCF7 [13], 4.39; in the assay on MCF7 [14] it was 2.4. The Activity in the assay with MCF7 [10] came out at 52.18 pmol adducts/mg DNA; with MCF7 [12] it was 54.15 pmol adducts/mg DNA; in the assay with MCF7 [15] it was 34.75 pmol adducts/mg DNA.
Take `CC(/C=C/C(=O)NO)=C\[C@@H](C)C(=O)c1ccc(N(C)C)cc1` [TRICHOSTATIN]: the Fold change with MCF7 [1] is listed as 0.17; in the assay with MCF7 [2], 1.57; with MCF7 [3], 0.81; in the assay with MCF7 [4] it was 1.29; with MCF7 [5], 0.77; in the assay with MCF7 [6], 3.1.

Source of the values: ChEMBL document CHEMBL1141990, “Effects of suberoylanilide hydroxamic acid and trichostatin A on induction of cytochrome P450 enzymes and benzo[a]pyrene DNA adduct formation in human cells” (2005).
